Experimental data published in patent US5234909A, “Dipeptidic amides derived from glycyl-serine as surfactants or hydrating agents and cosmetic, pharmaceutical or alimentary compositions containing the same” (L'Oreal, priority 1991, dated 1993).
Where a SMILES comes first, the peptide text is derived from it. [ ]: non-standard residue; d: D form. The star is where a group is joined. ξ: configuration not given here. Oleoyl = CCCCCCCC/C=C\CCCCCCCC(=O)*; Lauroyl = CCCCCCCCCCCC(=O)*; ξS = NC(CO)C(=O)O

Experiments:
[1] = Foaming power study (foam developed by brush in rotating graduated container); assay type: physicochemical; details: 5% aqueous solution (weight/volume), 5 ml with 6 mg natural feminine sebum; for Foam Height (cm) at the end of a time of 60 sec: 60 sec of stirring; for Foam Height (cm) at the end of a time of 120 sec: 120 sec of stirring; for Foam Height (cm) at the end of a time of 180 sec: 180 sec of stirring
Description: The test consists in developing the foam using a brush made of natural hog bristles (length=18 mm) displaced in a plexiglass graduated cylindrical container (inside diameter=35 mm). This container is driven in a uniform circular motion which is the reverse of that described by the brush. This permits a good distribution of the foam in the graduated container despite the small amounts developed. (brush speed =100 rpm, container speed =10 rpm). The procedure is carried out using 5 ml of each solution studied to which has been added 6 mg of natural feminine sebum. The foam heights are recorded after one, two and three minutes of stirring.

[2] = system: human stratum corneum previously delipidated; experiment: Hydrating effect on the skin: reduction of water loss of delipidated stratum corneum (evaporimeter); details: 3% solution in 2:1 dichloromethane:methanol applied on delipidated human stratum corneum; measured 3 hours after treatment
Description: In this test, the hydrating effect is evaluated by measuring the reduction of water loss of human stratum corneum previously delipidated. The stratum corneum is delipidated for one hour with a 2:1 dichloromethane/methanol mixture.
This test is effected in accordance with a method analogous to that described by J. L. Leveque et coll., J. Soc. Cosmet. Chem., 30, 333-343 (1979).
The following procedures are carried out:
The water flow (g/m^2.H) traversing a sample of stratum corneum placed below a water reservoir is measured. Using an evaporimeter (Servomed, registered mark), the evaporation values before and after treatment are registered, and the eventual reduction of the insensible loss of water is thus determined.
The treatment consists in applying on the sample of stratum corneum […] of a 3% solution in a 2:1 dichloromethane: methanol mixture of the compound being studied. The measurements are carried out 3 hours after this treatment.
On the basis of this test the compound of Example 2 is compared with N-oleoyl-glycyl-glycine (compound B) and with the olvent (2:1 dichloromethane:methanol) alone.

| Foam Height (cm) at the end of a time of 60 sec [1] [cm] | Foam Height (cm) at the end of a time of 120 sec [1] [cm] | Foam Height (cm) at the end of a time of 180 sec [1] [cm] | Structure (SMILES) | Reduction of the insensible loss of water [2] |
| --- | --- | --- | --- | --- |
| 12.5 | 21.25 | 28.75 | CCCCCCCCCCCC(=O)NCC(=O)NC(CO)C(=O)[O-].[Na+] (centres unmarked) [Ex. 5, Sodium Salt of N-dodecanoyl-glycyl-(D,L) Serine] (Lauroyl-Gly-[ξS]-OH) | – |
| – | – | – | CCCCCCCC/C=C\CCCCCCCC(=O)NCC(=O)NCC(=O)O [compound B, N-oleoyl-glycyl-glycine] (Oleoyl-Gly-Gly-OH) | 6% ± 3 |
| 11.25 | 13.75 | 20 | CCCCCCCCCCCC(=O)NCC(=O)NCC(=O)[O-].[Na+] [compound A, sodium salt of N-dodecanoyl-glycyl-glycine] (Lauroyl-Gly-Gly-OH) | – |
| – | – | – | CCCCCCCC/C=C\CCCCCCCC(=O)NCC(=O)NC(CO)C(=O)O (centres unmarked) [Example 2, N-oleoyl-glycyl-(D,L) Serine] (Oleoyl-Gly-[ξS]-OH) | 32% ± 3 |
